From patent publication US20220193085A1, “METHODS OF THROMBOPROPHYLAXIS” (JANSSEN PHARMACEUTICALS, INC., priority 2020, published 2022)
Values joined by “and” are separate entries in the source; they are usually repeats but may differ in a detail not shown here. Identical values can stand only once.

Assays:
[1] = UNIVERSE adverse events, serious adverse events and treatment discontinuation; format: in vivo, pediatric patients
Text: Other safety outcomes: Any adverse events and serious adverse events (SAES).

[2] = human, in vivo
Text: The methods and products of the invention concern dosages that are clinically proven safe and/or effective. Adverse events that impact whether the inventive dose, dosing regimen, treatment or method with rivaroxaban of the present invention are safe are adverse bleeding events that include, for example, major bleeding. “Major bleeding” as used herein is defined in accordance with ISTH criteria as clinically overt bleeding associated with a decrease in hemoglobin of […], a transfusion of the equivalent of […] of packed red blood cells or whole blood, or bleeding at a critical site, or with fatal outcome. Other adverse events include clinically relevant non-major bleeding and trivial (minimal) bleeding.
The primary safety outcome was ISTH defined major bleeding. Major bleeding was defined as overt bleeding and: […]
1) Associated with a fall in hemoglobin of 2 g/dL or more; or 2) Leading to a transfusion of the equivalent of 2 or more units of packed red blood cells or whole blood in adults; or 3) Occurring in a critical site: intracranial, intraspinal, intraocular, pericardial, intraarticular, intramuscular with compartment syndrome, retroperitoneal; or 4) Contributing to death.
The secondary safety outcomes were: Clinically relevant non-major bleeding and trivial (minimal) bleeding events.

[3] = Part A N=12, treatment-emergent, safety set
[4] = Part B rivaroxaban N=64, aspirin N=34, safety set
[5] = Part B rivaroxaban N=64, aspirin N=34, treatment-emergent, safety set
[6] = Part B rivaroxaban N=64, aspirin N=34, up to end of treatment, full analysis set

O=C(NC[C@H]1CN(c2ccc(N3CCOCC3=O)cc2)C(=O)O1)c1ccc(Cl)s1 [Rivaroxaban, 5-chloro-N-({(5S)-2-oxo-3-[4-(3-oxo-4-morpholinyl)phenyl]-1,3,oxazolidin-5-yl}methyl)-2-thiophenecarboxamide]
AEs related to Study Agent, n (%) ([1]; Part A N=12, safety set): 3 (25.0%)
SAEs related to Study Agent, n (%) ([1]; Part A N=12, safety set): 0
TEAEs resulting in Permanent Discontinuation of Study Agent, n (%) ([1]; Part A N=12, safety set): 0
Adverse event: Pleural Effusion, % of participants [1, 3]: (25%)
Adverse event: Pleural Effusion, n (%) [1, 3]: 3
All TESAEs (subjects with 1 or more serious adverse events), % of subjects [1, 3]: (50%)
Serious adverse event: Infections, % of participants [1, 3]: (25%)
Serious adverse event: Infections, n (%) [1, 3]: 3
Serious adverse event: Pleural Effusion, % of participants [1, 3]: (17%)
Serious adverse event: Pleural Effusion, n (%) [1, 3]: 2
Serious adverse event: Respiratory, Thoracic, and Mediastinal Disorders, % of participants [1, 3]: (17%)
Serious adverse event: Respiratory, Thoracic, and Mediastinal Disorders, n (%) [1, 3]: 2
TEAE: Gastrointestinal Disorders, n (%) [1, 3]: 6
TEAE: General Disorders and Administration Site Conditions, n (%) [1, 3]: 1
TEAE: Injury, Poisoning, and Procedural Complications, n (%) [1, 3]: 4
TEAE: Respiratory, Thoracic, and Mediastinal Disorders, n (%) [1, 3]: 5
TEAE: Skin and Subcutaneous Tissue Disorders, n (%) [1, 3]: 3
TEAE: Vascular Disorders, n (%) [1, 3]: 2
Study treatment discontinued due to adverse event of mood disturbance, subjects n (%) ([1]; Part B rivaroxaban N=64): 1 (1.6%)
AEs related to Study Agent, n (%) [1, 4]: 20 (31.3%)
SAEs related to Study Agent, n (%) [1, 4]: 1 (1.6%)
TEAEs resulting in Permanent Discontinuation of Study Agent, n (%) [1, 4]: 2 (3.1%)
All TEAEs (subjects with 1 or more), n (%) [1, 5]: 55 (85.9%) and 55 (86%)
All TESAEs (subjects with 1 or more serious adverse events), n (%) [1, 5]: 18 (28.1%) and 18 (28%)
Serious adverse event: Infections, n (%) [1, 5]: 5 (8%)
Serious adverse event: Pleural Effusion, n (%) [1, 5]: 9 (14%)
Serious adverse event: Respiratory, Thoracic, and Mediastinal Disorders, n (%) [1, 5]: 9 (14%)
TEAE: Gastrointestinal Disorders, n (%) [1, 5]: 19 (29.7%) and 19 (30%)
TEAE: General Disorders and Administration Site Conditions, n (%) [1, 5]: 17 (26.6%) and 17 (27%)
TEAE: Injury, Poisoning, and Procedural Complications, n (%) [1, 5]: 18 (28.1%) and 18 (28%)
TEAE: Respiratory, Thoracic, and Mediastinal Disorders, n (%) [1, 5]: 29 (45.3%) and 29 (45%)
TEAE: Skin and Subcutaneous Tissue Disorders, n (%) [1, 5]: 19 (29.7%) and 19 (30%)
TEAE: Vascular Disorders, n (%) [1, 5]: 3 (4.7%) and 3 (5%)
SAEs, % of subjects [1, 6]: (28.1%)
SAEs, No. of subjects with event [1, 6]: 18/64
New safety signals ([1]; UNIVERSE study): no new safety signals
CRNM bleeding: Hematoma, subjects n (%) [2]: 0
CRNM bleeding: Subconjunctival, subjects n (%) [2]: 0
Clinically relevant non-major (CRNM) bleeding, % of subjects [2]: (6.3%)
Clinically relevant non-major (CRNM) bleeding, No. of subjects with event [2]: 4/64
Clinically relevant non-major bleeding, subjects n (%) [2]: 5
Fall in hemoglobin ≥2 g/dL or transfusion of the equivalent ≥2 units of packed red blood cell or whole blood in adults, No. of subjects with event [2]: 1/64
Fall in hemoglobin ≥2 g/dL or transfusion of the equivalent ≥2 units, % of subjects [2]: (1.6%)
Fatal or critical site bleeding, No. of subjects with event [2]: 0
Major and clinically relevant non-major bleeding, % of subjects [2]: (7.8%)
Major and clinically relevant non-major bleeding, No. of subjects with event [2]: 5/64
Major bleeding (ISTH), % of subjects [2]: (1.3%)
Major bleeding (ISTH), subjects n (%) [2]: 1
Major bleeding (primary safety outcome), % of subjects [2]: (1.6%)
Major bleeding (primary safety outcome), No. of subjects with event [2]: 1/64
Trivial (minimal) bleeding, % of subjects [2]: (32.8%)
Trivial (minimal) bleeding, No. of subjects with event [2]: 21/64
Trivial bleeding, subjects n (%) [2]: 24
Trivial bleeding: GI-Lower, subjects n (%) [2]: 0
